# “And” between values parts separate entries of the source, which are not always exact repeats. Identical values can stand only once. Toxic doses and inconclusive results are not listed.
# Test system: P388 leukemia ip, CD2F1 mice, survival T/C
# Experiment: NCI In Vivo Anticancer Drug Screen. Data for tumor model P388 Leukemia (intraperitoneal) in CD2F1 (CDF1) mice
# Conditions: endpoint: median survival time, higher = longer survival
# In short: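 Mice carrying the transplanted tumor received test compound or vehicle. Survival was recorded in each group, and the value is the treated-group measurement divided by that of the vehicle-treated control group.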
# [1] = dose: 50.0 mg/kg/injection, schedule: Q01DX009 (ip), vehicle: saline
# [2] = dose: 100.0 mg/kg/injection, schedule: Q01DX009 (ip), vehicle: saline
# [3] = dose: 200.0 mg/kg/injection, schedule: Q01DX009 (ip), vehicle: saline
# [4] = dose: 6.25 mg/kg/injection, schedule: Q01DX005 (ip), vehicle: saline with Tween-80
# [5] = dose: 50.0 mg/kg/injection, schedule: Q01DX005 (ip), vehicle: Klucel (hydroxypropylcellulose) (HPC)
# [6] = dose: 100.0 mg/kg/injection, schedule: Q01DX005 (ip), vehicle: Klucel (hydroxypropylcellulose) (HPC)
# [7] = dose: 200.0 mg/kg/injection, schedule: Q01DX005 (ip), vehicle: Klucel (hydroxypropylcellulose) (HPC)
# [8] = dose: 60.0 mg/kg/injection, schedule: Q01DX005 (ip), vehicle: saline with Tween-80
# [9] = dose: 120.0 mg/kg/injection, schedule: Q01DX005 (ip), vehicle: saline with Tween-80
# [10] = dose: 240.0 mg/kg/injection, schedule: Q01DX005 (ip), vehicle: saline with Tween-80
# [11] = dose: 50.0 mg/kg/injection, schedule: Q01DX009 (ip), vehicle: saline with Tween-80
# [12] = dose: 100.0 mg/kg/injection, schedule: Q01DX009 (ip), vehicle: saline with Tween-80
# [13] = dose: 200.0 mg/kg/injection, schedule: Q01DX009 (ip), vehicle: saline with Tween-80
# [14] = dose: 60.0 mg/kg/injection, schedule: Q01DX005 (ip), vehicle: saline
# [15] = dose: 120.0 mg/kg/injection, schedule: Q01DX005 (ip), vehicle: saline
# [16] = dose: 50.0 mg/kg/injection, schedule: Q01DX009 (ip), vehicle: suspension in saline
# [17] = dose: 100.0 mg/kg/injection, schedule: Q01DX009 (ip), vehicle: suspension in saline
# [18] = dose: 200.0 mg/kg/injection, schedule: Q01DX009 (ip), vehicle: suspension in saline
# [19] = dose: 100.0 mg/kg/injection, schedule: Q01DX001 (ip), vehicle: Klucel (hydroxypropylcellulose) (HPC)
# [20] = dose: 200.0 mg/kg/injection, schedule: Q01DX001 (ip), vehicle: Klucel (hydroxypropylcellulose) (HPC)
# [21] = dose: 400.0 mg/kg/injection, schedule: Q01DX001 (ip), vehicle: Klucel (hydroxypropylcellulose) (HPC)
smiles,measurement,setting,value
CC(C)=CC1C(C(=O)OCc2ccc3c(c2)OCO3)C1(C)C (stereo unspecified),T/C,[1],107 % of control
same,T/C,[2],93 % of control
same,T/C,[3],99 % of control
same,T/C,"dose: 400.0 mg/kg/injection, schedule: Q01DX009 (ip), vehicle: saline",104 % of control
CCCOc1ccc(C#N)cc1,T/C,"dose: 50.0 mg/kg/injection, schedule: Q01DX009 (ip), vehicle: Klucel (hydroxypropylcellulose) (HPC)",102 % of control
same,T/C,"dose: 100.0 mg/kg/injection, schedule: Q01DX009 (ip), vehicle: Klucel (hydroxypropylcellulose) (HPC)",108 % of control
same,T/C,"dose: 200.0 mg/kg/injection, schedule: Q01DX009 (ip), vehicle: Klucel (hydroxypropylcellulose) (HPC)",99 % of control
CCCNC(=S)Nc1ncco1,T/C,[1],100 % of control
same,T/C,[2],96 % of control
same,T/C,[3],111 % of control
CCOC(=O)N1CCN(C(=S)N/N=C(\C)c2ncccn2)CC1,T/C,[4],123 % of control
same,T/C,"dose: 12.5 mg/kg/injection, schedule: Q01DX005 (ip), vehicle: saline with Tween-80",97 % of control
CSC1=NN(C(C)=O)C(c2ccncc2)S1 (stereo unspecified),T/C,[5],96 % of control
same,T/C,[6],97 % of control
same,T/C,[7],92 % of control
CCOC(=O)C1CSC(c2c(COP(=O)(O)O)cnc(C)c2O)N1 (stereo unspecified),T/C,"dose: 50.0 mg/kg/injection, schedule: Q01DX005 (ip), vehicle: saline with Tween-80",96 % of control
same,T/C,"dose: 100.0 mg/kg/injection, schedule: Q01DX005 (ip), vehicle: saline with Tween-80",100 % of control
same,T/C,"dose: 200.0 mg/kg/injection, schedule: Q01DX005 (ip), vehicle: saline with Tween-80",94 % of control
ClCc1cnc[nH]1,T/C,[1],116 % of control
same,T/C,[2],111 % of control
COc1ccc(Nc2nc3c(s2)c(C)c(O)c2ccccc23)cc1,T/C,[8],95 % of control
same,T/C,[9],103 % of control
same,T/C,[10],112 % of control
Cc1ccc2cccc(OC(=O)c3cccnc3Oc3ccccc3)c2n1,T/C,[11],91 % of control
same,T/C,[12],90 % of control
same,T/C,[13],90 % of control
COC(=O)c1c(-c2ccccc2)c(-c2ccccc2)nn(-c2ccccc2)c1=O,T/C,"dose: 50.0 mg/kg/injection, schedule: Q01DX001 (ip), vehicle: saline with Tween-80",100 % of control and 102 % of control
same,T/C,"dose: 100.0 mg/kg/injection, schedule: Q01DX001 (ip), vehicle: saline with Tween-80",99 % of control and 100 % of control
same,T/C,"dose: 200.0 mg/kg/injection, schedule: Q01DX001 (ip), vehicle: saline with Tween-80",92 % of control and 97 % of control
same,T/C,"dose: 400.0 mg/kg/injection, schedule: Q01DX001 (ip), vehicle: saline with Tween-80",87 % of control and 90 % of control
NNC(=O)CCCCl,T/C,[14],111 % of control
same,T/C,[15],110 % of control
Fc1ccc(NC(=S)SCc2ccc(Cl)c(Cl)c2)c(F)c1,T/C,[16],93 % of control
same,T/C,[17],100 % of control
same,T/C,[18],88 % of control
CC(C)(C)c1cc(C(C)(C)C)c(=O)oc(=O)c1,T/C,[5],98 % of control
same,T/C,[6],98 % of control
CCn1ncc2c1nc(-c1ccccc1)c[n+]2[O-],T/C,"dose: 60.0 mg/kg/injection, schedule: Q01DX005 (ip), vehicle: Klucel (hydroxypropylcellulose) (HPC)",92 % of control
same,T/C,"dose: 120.0 mg/kg/injection, schedule: Q01DX005 (ip), vehicle: Klucel (hydroxypropylcellulose) (HPC)",100 % of control
same,T/C,"dose: 240.0 mg/kg/injection, schedule: Q01DX005 (ip), vehicle: Klucel (hydroxypropylcellulose) (HPC)",101 % of control
O=c1cccc(O)[nH]1,T/C,[1],109 % of control and 94 % of control
same,T/C,[2],100 % of control and 93 % of control
Cc1nc(N=C(N)N)nc2ccc3ccccc3c12,T/C,"dose: 3.13 mg/kg/injection, schedule: Q01DX009 (ip), vehicle: Klucel (hydroxypropylcellulose) (HPC)",95 % of control
same,T/C,"dose: 6.25 mg/kg/injection, schedule: Q01DX009 (ip), vehicle: Klucel (hydroxypropylcellulose) (HPC)",104 % of control
same,T/C,"dose: 12.5 mg/kg/injection, schedule: Q01DX009 (ip), vehicle: Klucel (hydroxypropylcellulose) (HPC)",93 % of control
C=C1CCN(c2ccc(N3CCC(=C)C3=O)cc2)C1=O,T/C,"dose: 3.12 mg/kg/injection, schedule: Q01DX009 (ip), vehicle: saline + alcohol",88 % of control
same,T/C,"dose: 6.25 mg/kg/injection, schedule: Q01DX009 (ip), vehicle: saline + alcohol",100 % of control
same,T/C,"dose: 25.0 mg/kg/injection, schedule: Q01DX009 (ip), vehicle: saline + alcohol",88 % of control
same,T/C,"dose: 50.0 mg/kg/injection, schedule: Q01DX009 (ip), vehicle: saline + alcohol",88 % of control
CC1=Nc2ccc(C)cc2N=C(C)C1,T/C,[1],86 % of control
same,T/C,[2],91 % of control
O=C([CH-]C(=O)C(F)(F)F)C(F)(F)F.O=C([CH-]C(=O)C(F)(F)F)C(F)(F)F.O=C([CH-]C(=O)C(F)(F)F)C(F)(F)F.[Ru+3],T/C,"dose: 7.5 mg/kg/injection, schedule: Q01DX005 (ip), vehicle: Klucel (hydroxypropylcellulose) (HPC)",97 % of control
same,T/C,"dose: 15.0 mg/kg/injection, schedule: Q01DX005 (ip), vehicle: Klucel (hydroxypropylcellulose) (HPC)",87 % of control
Cn1c(=O)c2[nH]c(Cc3cccc(O)c3)nc2n(C)c1=O,T/C,"dose: 25.0 mg/kg/injection, schedule: Q01DX009 (ip), vehicle: suspension in saline",99 % of control
same,T/C,[16],96 % of control
same,T/C,[17],92 % of control and 93 % of control
same,T/C,[18],104 % of control
same,T/C,"dose: 400.0 mg/kg/injection, schedule: Q01DX009 (ip), vehicle: suspension in saline",91 % of control
CCN(CC)C(C)(C)C(=O)/C=C/c1ccc(Cl)c(Cl)c1,T/C,[14],102 % of control
same,T/C,[15],101 % of control
same,T/C,"dose: 240.0 mg/kg/injection, schedule: Q01DX005 (ip), vehicle: saline",100 % of control
CCN(CC)C(=Nc1ccc(NC(=O)c2ccc(C(=O)Nc3ccc(N=C(c4ccccc4)N(CC)CC)cc3)cc2)cc1)c1ccccc1,T/C,[5],96 % of control
same,T/C,[6],97 % of control
same,T/C,[7],96 % of control
Cn1c2ccccc2c2cnn3cnnc3c21,T/C,"dose: 50.0 mg/kg/injection, schedule: Q01DX001 (ip), vehicle: Klucel (hydroxypropylcellulose) (HPC)",91 % of control
same,T/C,[19],88 % of control
same,T/C,[20],96 % of control
O=C1c2ccccc2C(Cl)=C(Cl)C1(Cl)Cl,T/C,"dose: 12.5 mg/kg/injection, schedule: Q01DX009 (ip), vehicle: saline with Tween-80",104 % of control
same,T/C,"dose: 25.0 mg/kg/injection, schedule: Q01DX009 (ip), vehicle: saline with Tween-80",90 % of control
O=C1NC(=O)/C(=C2\CCOC2=O)N1,T/C,[11],100 % of control
same,T/C,[12],94 % of control
same,T/C,[13],100 % of control
NC(=S)c1ccc(C=Nc2ccc(Cl)cc2)cc1,T/C,"dose: 50.0 mg/kg/injection, schedule: Q01DX001 (ip), vehicle: other",102 % of control
same,T/C,"dose: 100.0 mg/kg/injection, schedule: Q01DX001 (ip), vehicle: other",98 % of control
CCOC(=O)c1[nH]c2ccc(O)c3c2c1CCC3=O,T/C,[11],92 % of control
same,T/C,[12],88 % of control
same,T/C,[13],94 % of control
COc1ccc(OC(=O)c2ccccc2)c2c1C(=O)C=CC2=O,T/C,"dose: 1.56 mg/kg/injection, schedule: Q01DX005 (ip), vehicle: saline with Tween-80",116 % of control
same,T/C,"dose: 3.13 mg/kg/injection, schedule: Q01DX005 (ip), vehicle: saline with Tween-80",111 % of control
same,T/C,[4],111 % of control and 116 % of control
COc1cc(CC(=O)NCCc2ccsc2)c(CO)cc1OCc1ccccc1,T/C,[19],99 % of control
same,T/C,[20],101 % of control
same,T/C,[21],101 % of control
CCOc1c(OC)cc(C2c3cc4c(c(OCC)c3CC3COC(=O)C32)OCO4)cc1OC (stereo unspecified),T/C,"dose: 12.5 mg/kg/injection, schedule: Q01DX005 (ip), vehicle: Klucel (hydroxypropylcellulose) (HPC)",94 % of control
same,T/C,"dose: 25.0 mg/kg/injection, schedule: Q01DX005 (ip), vehicle: Klucel (hydroxypropylcellulose) (HPC)",91 % of control
same,T/C,[5],86 % of control
same,T/C,[6],97 % of control
IP1c2ccccc2P2P(I)c3ccccc3P12 (stereo unspecified),T/C,[5],102 % of control
same,T/C,[6],108 % of control
same,T/C,[7],105 % of control
Nc1nc(-c2ccc(Cl)c(Cl)c2)cc(-c2cc(-c3ccc(Cl)c(Cl)c3)nc(N)n2)n1,T/C,[8],96 % of control
same,T/C,[9],95 % of control
same,T/C,[10],95 % of control
COc1cc(Cc2nnc(Nc3ccccc3)[nH]c2=O)cc(OC)c1OC,T/C,[19],98 % of control
same,T/C,[20],94 % of control
same,T/C,[21],98 % of control
